{"source": "patent US9833447B2", "about": "“5-HT4 receptor agonist for gastroparesis” (RAQUALIA PHARMA INC., priority 2014, dated 2017)", "key": {"[1]": {"system": "clonidine-induced gastroparesis model in dogs", "assay": "Gastric emptying rates in conscious dogs, clonidine-induced gastroparesis model (acetaminophen method)", "assay_type": "in vivo, beagle dogs", "settings": "clonidine 0.01 mg/kg s.c.", "method": "Measurement of Gastric Emptying Rates in Conscious Dogs\nAll dogs are purchased from Kitayama Labes Co., Ltd. (Oriental Yeast Co., Ltd.). The animals are acclimatized to the laboratory conditions during experiments.\nDogs are fasted overnight, and then they are fed the test meal (10 mL/kg), which is ingested within 3 minutes. Blood samples are obtained at 0, 15, 30, 45, 60, 75, and 90 minutes after test meal administration. To provide a model of gastroparesis, 0.01 mg/kg of clonidine (alpha2 adrenergic agonist, Wako Pure Chemical Industries, Ltd., Osaka, Japan) is injected subcutaneously 30 minutes before test meal administration. […] Plasma is separated from the blood by centrifugation at 3,000 g for 5 min at 4° C. (himac CF15D, Hitachi Koki Co., Ltd., Tokyo, Japan). The plasma acetaminophen concentration is measured by LC-mass spectrometry.\nAliquots of dog plasma (50 microL) and 50 microL of internal standard (IS)* solution are mixed and vortexed well, and then they are diluted to a final volume of 750 microL with 50 mM ammonium acetate. As IS, [D4]4-acetamidophenol is used. Following conditioning of the solid phase extraction (SPE) 96 well plate (OASIS HLB, 10 mg/well, 30 microm, Waters Corporation, Milford, Mass., USA) with 700 microL methanol and 700 microL water in sequence, 750 microL of the plasma samples are transferred to the SPE plate for extraction. The SPE plate is then washed with 700 microL of 5% methanol. Samples are eluted twice off the SPE plate into a clean 96 deep well plate by addition of 250 microL of methanol. The eluent is then evaporated to dryness under 40° C. gentle stream of nitrogen, and reconstituted in 100 microL of acetonitrile/10 mM ammonium acetate (1/9, v/v). The samples are injected into HPLC column, and then the effluent from HPLC column is directly introduced into the turboionspray ion source, which is operated at the following conditions: * 300 ng/mL [D4]4-acetamidophenol: 10% methanol solution."}, "[2]": {"system": "patients with gastroparesis", "assay": "Gastric emptying rates in patients with gastroparesis (SmartPill)", "assay_type": "in vivo, human", "method": "Measurement of Gastric Emptying Rates in Patients with Gastroparesis Clinical studies in patients with gastroparesis are conducted. Effect of Compound A on gastric emptying time (GET) is confirmed with SmartPill (Registered Trademark, Given Imaging Ltd.). SmartPill is an ingestible capsule that measures pressure, pH and temperature as it travels through the gastrointestinal (GI) tract to assess GI motility. The SmartPill motility monitoring test can be performed at a clinic or physician's office to evaluate motility disorders like gastroparesis (a condition in which the contents of the stomach empty too slowly) and chronic constipation. An improved gastric emptying time and colonic transit time are observed in the clinical studies."}, "[3]": {"system": "healthy male human subjects", "assay": "Gastric emptying rates in healthy male human subjects (13C-breath test, BreathID)", "assay_type": "in vivo", "method": "Measurement of Gastric Emptying Rates in Human Study Population\nHealthy male subjects, who aged between 18 and 55 years old and have a normal gastric emptying (GE) rate, are screened and enrolled into the study.\nSubjects are given single oral doses of Compound A at 0.6 and 3 microg. Subjects swallowed dosing solution (20 mL) of appropriate Compound A concentrations. The dosing bottle is rinsed with 20 mL of water, and this rinse is swallowed by the subjects. The subjects then swallowed 200 mL of room temperature water, resulting in a total fluid intake at dosing of 240 mL.\nGE is monitored with ^13C-breath test using the BreathiD system (Exalenz Bioscience Inc., Modin, Israel), which enables to continuously analyze the subject's breath for exhaled CO2 via a nasal cannula using molecular correlation spectrometry at the bedside. […] GE rate of solids is evaluated over the 4 hours period following ingestion of a standardized solid test meal, which are comprised of 2 slices of bread, 1 egg and 150 mL water including an egg yolk that have been mixed with 100 mg ^13C-octanoic acid (total calorific intake of 200-300 kcal). […] The parameters for GE of gastric half emptying time (GET1/2), lag phase (Tlag), gastric emptying coefficient (GEC) and gastric emptying area under the effect curve (AUEC) are automatically calculated."}}, "note": "“Also recorded” adds a separate entry of the source."}
{"smiles": "COc1cc(N)c(Cl)cc1C(=O)NC1CCN(CCCOc2ccc(F)cc2)CC1OC", "note": "(stereo not shown) [Cisapride, cisapride, reference compound]", "values": [{"measurement": "Effect on delayed gastric emptying induced by clonidine (plasma acetaminophen)", "setting": "[1]; cisapride 1, 3 mg/kg p.o.", "result": "reversed delayed gastric emptying"}]}
{"smiles": "O=C(O)C1(CN2CCC(COc3noc4cccc(OCC(F)(F)F)c34)CC2)CCOCC1", "note": "[Compound A, 4-{[4-({[4-(2,2,2-trifluoroethoxy)-1,2-benzisoxazol-3-yl]-oxy}methyl)piperidin-1-yl]methyl}tetrahydro-2H-pyran-4-carboxylic acid]", "values": [{"measurement": "Colonic transit time", "setting": "[2]", "result": "improved"}, {"measurement": "Gastric emptying time (GET)", "setting": "[2]", "result": "improved"}, {"measurement": "Effect on delayed gastric emptying induced by clonidine (plasma acetaminophen)", "setting": "[1]; Compound A 0.3 microg/kg p.o.", "result": "significantly restored delayed gastric emptying induced by clonidine (0.01 mg/kg) to the normal levels; also recorded: equivalent to that of cisapride (1 mg/kg, p.o.)"}, {"measurement": "Severe Adverse Events and undesirable adverse events including QT/QTc prolongation", "setting": "[3]; even at supratherapeutic doses, human healthy subjects", "result": "No Severe Adverse Events (SAEs) and undesirable adverse events"}, {"measurement": "Absolute change from baseline in gastric half emptying time (GET1/2)", "setting": "[3]; single oral doses 0.6 and 3 microg, healthy male human subjects", "result": "clearly observed; also recorded: improved"}]}
{"smiles": "Clc1cccc(Cl)c1N=C1NCCN1", "note": "[clonidine, reference compound]", "values": [{"measurement": "Plasma APAP concentration at 60 min after meal administration", "setting": "[1]; gastroparesis model induction", "result": "significantly decreased"}]}
